# PubChem BioAssay AID1963849 (Molecular Pharmacology Branch, DTP, NCI, 2024)
# Where “and” joins values, the source holds several entries; their conditions need not be identical. Equal values may be shown once.
# System: 299254-011-R-J1-PDC complex spheroid viability
# Assay: Anticancer human tumor 299254-011-R-J1-PDC patient-derived melanoma cell line growth inhibition [POLQ]
# Details: for viability, T/C: stronger effect = lower value
# Experimental: Multicellular complex tumor spheroid response to Polymerase (POL) inhibitors (novobiocin, ART-558, RP6685) in combination with a variety of drugs and investigational agents in selected tumor cell lines
# The POL inhibitors (novobiocin, ART-558, and RP6685) were evaluated both individually and in combination with standard of care and investigational anticancer small molecules within a complex spheroid model of solid tumors. . Complex spheroids include a stromal component modeled by human endothelial cells (HUVEC) and fibroblasts modeled by human mesenchymal stem cells (MSCs). The concentration ranges selected for each drug and investigational agent were based upon clinically achievable concentrations if the clinical Cmax of the agent was known.
# Compounds. The drugs and investigational agents: novobiocin (NSC847541), ART-558 (NSC835418), RP-6685 (NSC848927), peposertib (NSC802822), ceralasertib (NSC780249), elimusertib (NSC800525), camonsertib (NSC841442), AZD-1390 (NSC803789), olaparib (NSC753686), talazoparib (NSC767125), rucaparib (NSC756644), sotorasib (NSC818433), MRTX-1133 (NSC836407), SN-38 (NSC673596), topotecan (NSC609699), epotoside (NSC141540), doxorubicin (NSC123127), gemcitabine (NSC613327), 5-fluorouracil (NSC19893), paclitaxel (NSC125973), vemurafenib (NSC761431), MSA-2 (NSC828583), SN-011 (NSC837082), adavosertib (NSC754352), prexasertib (NSC758257), carboplatin (NSC241240) and oxaliplatin (NSC266046), were obtained from the National Cancer Institute (NCI) Developmental Therapeutics Program Chemical Repository (21). The FDA-approved anticancer drug set is available from the Developmental Therapeutics Program at https://dtp.cancer.gov/organization/dscb/obtaining/. […] The stock solutions were prepared in dimethyl sulfoxide (DMSO, Sigma-Aldrich, St. Louis, MO, cat. D2650), except for the platinum compounds which were prepared in saline (Quality Biological, Gaithersburg, MD, cat. 114-055-101), at 800-fold the tested concentration and stored at -70 degrees C prior to their use. All drugs and investigational agents were tested over a range starting from a high concentration at or near the clinical Cmax and decreasing in half-log increments. If the clinical Cmax for an agent had not been determined, the highest concentration tested was 10 microM, except for SN-38, which was tested at a high concentration of 1 microM.
# Cell Culture. All cells were maintained in an incubator at 37 degrees C and 5% CO2 with 95% humidity. The PDC lines were cultured according to standard operating procedures established by the NCI PDMR (https://pdmr.cancer.gov). Table 3 of the manuscript, lists the cell lines along with the number of the three cell types plated to form the mct-spheroids and media for tumor cell growth. After thawing, all PDC lines, except 997537-175-T-J1-PDC and 415267-285-R-J2-PDC, were cultured in Matrigel-coated flasks prepared with a working solution of 1X Ham's F-12 nutrient mix, without supplementation (Thermo Fisher Scientific, cat. 11765054), 100 U/mL penicillin-streptomycin (Thermo Fisher Scientific, cat. 15140122), and 2.5% Matrigel (Corning Inc., Corning, NY, cat. 354248) for the first three passages. The two PDC lines 997537-175-T-J1-PDC and 415267-285-R-J2-PDC were cultured on uncoated flasks. The 857933-349-R-J2-PDC line was cultured in 6C/Colon 1B media containing advanced DMEM/F-12 (Thermo Fisher Scientific, cat. 12634028), 10 mM HEPES (Thermo Fisher Scientific, cat. 15630080), 1X GlutaMAX supplement (Thermo Fisher Scientific, cat. 35050061), 0.1 mg/mL primocin (InvivoGen, San Diego, CA, cat. ant-pm-2), 10% defined fetal bovine serum, heat inactivated (HyClone Laboratories Inc., Logan, UT, cat. SH30070.03HI), 50% L-WRN conditioned media (ATCC, cat. CRL-3276), 1.25 mM N-Acetyl-L-cysteine (Sigma-Aldrich, cat. A9165), 10 mM nicotinamide (Sigma-Aldrich, cat. N0636), 1X B-27 supplement (Thermo Fisher Scientific, cat. 17504044), 1X N-2 supplement (Thermo Fisher Scientific, cat. […]
# [1] = curve of first compound, second compound 0.0316 µM
# [2] = curve of first compound, second compound 0.1 µM
# [3] = curve of first compound, second compound 0.316 µM
# [4] = curve of first compound, second compound 1 µM
# [5] = curve of first compound, second compound 3.16 µM
# [6] = curve of first compound, second compound 10 µM
# [7] = second compound 0.0316 µM, first compound 0.0316 µM
# [8] = second compound 0.0316 µM, first compound 0.1 µM
# [9] = second compound 0.1 µM, first compound 0.0316 µM
# [10] = second compound 0.1 µM, first compound 0.1 µM
# [11] = second compound 0.316 µM, first compound 0.0316 µM
# [12] = second compound 0.316 µM, first compound 0.1 µM
# [13] = second compound 1 µM, first compound 0.0316 µM
# [14] = second compound 1 µM, first compound 0.1 µM
# [15] = second compound 3.16 µM, first compound 0.0316 µM
# [16] = second compound 3.16 µM, first compound 0.1 µM
# [17] = second compound 10 µM, first compound 0.0316 µM
# [18] = second compound 10 µM, first compound 0.1 µM
# 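Note: spheroids exposed to drugs for one week before measurement.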
# 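Throughout, for viability, T/C: percent viability relative to DMSO vehicle control taken as 100%.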
structure (smiles),measurement,setting,value
CC[C@@]1(O)C(=O)OCc2c1cc1n(c2=O)Cc2cc3c(CN(C)C)c(O)ccc3nc2-1 + COC1C(OC(N)=O)C(O)C(Oc2ccc3c(O)c(NC(=O)c4ccc(O)c(CC=C(C)C)c4)c(=O)oc3c2C)OC1(C)C,IC50,[1],> 100 nM
same,IC50,[2],> 100 nM
same,IC50,[3],> 100 nM
same,IC50,[4],> 100 nM
same,IC50,[5],> 100 nM
same,IC50,[6],> 100 nM
same,"viability, T/C","second compound 0.0316 µM, first compound 0.000316 µM",104%
same,"viability, T/C","second compound 0.0316 µM, first compound 0.001 µM",95.4%
same,"viability, T/C","second compound 0.0316 µM, first compound 0.00316 µM",123%
same,"viability, T/C","second compound 0.0316 µM, first compound 0.01 µM",101%
same,"viability, T/C",[7],112%
same,"viability, T/C",[8],76%
same,"viability, T/C","second compound 0.1 µM, first compound 0.000316 µM",111%
same,"viability, T/C","second compound 0.1 µM, first compound 0.001 µM",105%
same,"viability, T/C","second compound 0.1 µM, first compound 0.00316 µM",107%
same,"viability, T/C","second compound 0.1 µM, first compound 0.01 µM",110%
same,"viability, T/C",[9],114%
same,"viability, T/C",[10],83.5%
same,"viability, T/C","second compound 0.316 µM, first compound 0.000316 µM",102%
same,"viability, T/C","second compound 0.316 µM, first compound 0.001 µM",120%
same,"viability, T/C","second compound 0.316 µM, first compound 0.00316 µM",103%
same,"viability, T/C","second compound 0.316 µM, first compound 0.01 µM",102%
same,"viability, T/C",[11],120%
same,"viability, T/C",[12],74.5%
same,"viability, T/C","second compound 1 µM, first compound 0.000316 µM",104%
same,"viability, T/C","second compound 1 µM, first compound 0.001 µM",106%
same,"viability, T/C","second compound 1 µM, first compound 0.00316 µM",111%
same,"viability, T/C","second compound 1 µM, first compound 0.01 µM",110%
same,"viability, T/C",[13],110%
same,"viability, T/C",[14],67.6%
same,"viability, T/C","second compound 3.16 µM, first compound 0.000316 µM",115%
same,"viability, T/C","second compound 3.16 µM, first compound 0.001 µM",104%
same,"viability, T/C","second compound 3.16 µM, first compound 0.00316 µM",93.6%
same,"viability, T/C","second compound 3.16 µM, first compound 0.01 µM",105%
same,"viability, T/C",[15],105%
same,"viability, T/C",[16],84.6%
same,"viability, T/C","second compound 10 µM, first compound 0.000316 µM",112%
same,"viability, T/C","second compound 10 µM, first compound 0.001 µM",111%
same,"viability, T/C","second compound 10 µM, first compound 0.00316 µM",112%
same,"viability, T/C","second compound 10 µM, first compound 0.01 µM",102%
same,"viability, T/C",[17],110%
same,"viability, T/C",[18],87.1%
CC1COCCN1c1cc(-c2ccnn2C)c2ccnc(-c3ccn[nH]3)c2n1 (stereo not drawn) + COC1C(OC(N)=O)C(O)C(Oc2ccc3c(O)c(NC(=O)c4ccc(O)c(CC=C(C)C)c4)c(=O)oc3c2C)OC1(C)C,IC50,[1],216 nM
same,IC50,[2],232 nM
same,IC50,[3],236 nM
same,IC50,[4],242 nM
same,IC50,[5],236 nM
same,IC50,[6],295 nM
same,"viability, T/C",[7],104%
same,"viability, T/C",[8],71.6%
same,"viability, T/C","second compound 0.0316 µM, first compound 0.316 µM",39%
same,"viability, T/C","second compound 0.0316 µM, first compound 1 µM",28.6%
same,"viability, T/C","second compound 0.0316 µM, first compound 3.16 µM",36.5%
same,"viability, T/C","second compound 0.0316 µM, first compound 10 µM",19.8%
same,"viability, T/C",[9],106%
same,"viability, T/C",[10],69.5%
same,"viability, T/C","second compound 0.1 µM, first compound 0.316 µM",43%
same,"viability, T/C","second compound 0.1 µM, first compound 1 µM",27%
same,"viability, T/C","second compound 0.1 µM, first compound 3.16 µM",36.9%
same,"viability, T/C","second compound 0.1 µM, first compound 10 µM",18.8%
same,"viability, T/C",[11],88.8%
same,"viability, T/C",[12],63.6%
same,"viability, T/C","second compound 0.316 µM, first compound 0.316 µM",46.7%
same,"viability, T/C","second compound 0.316 µM, first compound 1 µM",28.9%
same,"viability, T/C","second compound 0.316 µM, first compound 3.16 µM",31.3%
same,"viability, T/C","second compound 0.316 µM, first compound 10 µM",18.9%
same,"viability, T/C",[13],92.4%
same,"viability, T/C",[14],72.2%
same,"viability, T/C","second compound 1 µM, first compound 0.316 µM",43.2%
same,"viability, T/C","second compound 1 µM, first compound 1 µM",26.9%
same,"viability, T/C","second compound 1 µM, first compound 3.16 µM",38.4%
same,"viability, T/C","second compound 1 µM, first compound 10 µM",16.6%
same,"viability, T/C",[15],94.6%
same,"viability, T/C",[16],75%
same,"viability, T/C","second compound 3.16 µM, first compound 0.316 µM",42%
same,"viability, T/C","second compound 3.16 µM, first compound 1 µM",26.5%
same,"viability, T/C","second compound 3.16 µM, first compound 3.16 µM",35.9%
same,"viability, T/C","second compound 3.16 µM, first compound 10 µM",22.7%
same,"viability, T/C",[17],102%
same,"viability, T/C",[18],82.1%
same,"viability, T/C","second compound 10 µM, first compound 0.316 µM",47.9%
same,"viability, T/C","second compound 10 µM, first compound 1 µM",30.6%
same,"viability, T/C","second compound 10 µM, first compound 3.16 µM",41.7%
same,"viability, T/C","second compound 10 µM, first compound 10 µM",20%
CCc1c2c(nc3ccc(O)cc13)-c1cc3c(c(=O)n1C2)COC(=O)[C@]3(O)CC,"viability, T/C",compound 0.00316 µM,94.6% and 92.7% and 99.2%
same,"viability, T/C",compound 0.01 µM,89.3% and 93.2% and 77.9%
same,"viability, T/C",compound 0.0316 µM,75.9% and 72.8% and 82%
same,"viability, T/C",compound 0.1 µM,67.9% and 81.2% and 60.7%
same,"viability, T/C",compound 0.316 µM,69.4% and 75.8% and 59.4%
same,"viability, T/C",compound 1 µM,51.7% and 59.2% and 59.4%
same,IC50,curve of compound,> 1000 nM
CC1COCCN1c1cc(-c2ccnn2C)c2ccnc(-c3ccn[nH]3)c2n1 (stereo not drawn),"viability, T/C",compound 0.0316 µM,96.6% and 111% and 99%
same,"viability, T/C",compound 0.1 µM,67.8% and 70% and 78.4%
same,"viability, T/C",compound 0.316 µM,46.7% and 46.5% and 50.2%
same,"viability, T/C",compound 1 µM,30.8% and 31.4% and 31.7%
same,"viability, T/C",compound 3.16 µM,21.6% and 31.1% and 23.9%
same,"viability, T/C",compound 10 µM,18.8% and 20.6% and 22.7%
same,IC50,curve of compound,255 nM and 265 nM and 320 nM
